The source of these data is patent publication US11970498B2, “CDK2 inhibitors” (BLUEPRINT MEDICINES CORPORATION, priority 2021, dated 2024).

For one experiment, the target named is T1, CDK1/Cyclin B1, GST-tag (Homo sapiens, UniProt P06493).
T1 construct: GST
Briefly: CDK1/Cyclin B1 biochemical phosphorylation assay (Caliper mobility shift). The settings on record: apparent IC50; 1.0 mM ATP or ATP Km; 1.5 nM enzyme; 25° C. The procedure, abridged:
(§1)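 Caliper electrophoretic separation of substrate and phosphopeptide gave apparent IC50s. Enzymes: CDK1/Cyclin B1 GST-tag 1.5 nM, CDK2/Cyclin E 1.25 nM; ATP 1.0 mM or at Km; 7.5 µM FL-peptide; pH 7.5 HEPES buffer, 1% DMSO; room temperature until 10–20% phosphorylated, then EDTA quench.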

In the next experiment the target is CDK2/Cyclin E (Homo sapiens, UniProt P24941). Briefly: CDK2/Cyclin E biochemical phosphorylation assay (Caliper mobility shift). Conditions: apparent IC50; 1.0 mM ATP or ATP Km; 1.25 nM enzyme; 25° C.; read-out: CDK2/cyclin E1 IC50. Summed up:
as §1

SMILES strings stand for the structures.

T1 sequence (P06493 whole entry): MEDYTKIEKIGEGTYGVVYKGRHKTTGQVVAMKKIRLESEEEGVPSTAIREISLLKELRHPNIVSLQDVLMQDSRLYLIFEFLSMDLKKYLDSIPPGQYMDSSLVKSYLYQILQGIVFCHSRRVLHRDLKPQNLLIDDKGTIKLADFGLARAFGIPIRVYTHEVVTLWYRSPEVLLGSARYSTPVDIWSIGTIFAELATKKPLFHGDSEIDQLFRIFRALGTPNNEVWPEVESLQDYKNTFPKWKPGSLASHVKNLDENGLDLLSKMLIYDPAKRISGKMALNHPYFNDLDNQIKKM
T1 sequence (P14635 whole entry partner): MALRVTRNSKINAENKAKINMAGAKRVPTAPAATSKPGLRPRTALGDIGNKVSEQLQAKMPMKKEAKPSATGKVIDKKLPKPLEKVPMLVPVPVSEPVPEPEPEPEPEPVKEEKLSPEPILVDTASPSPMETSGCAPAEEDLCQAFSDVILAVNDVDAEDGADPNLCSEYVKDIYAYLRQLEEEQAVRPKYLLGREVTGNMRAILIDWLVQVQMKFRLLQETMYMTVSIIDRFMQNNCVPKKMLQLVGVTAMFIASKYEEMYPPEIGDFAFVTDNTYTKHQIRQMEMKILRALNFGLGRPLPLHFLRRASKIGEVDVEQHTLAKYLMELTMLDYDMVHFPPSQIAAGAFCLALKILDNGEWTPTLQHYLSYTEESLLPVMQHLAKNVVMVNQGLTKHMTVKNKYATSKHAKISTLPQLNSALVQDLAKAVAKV

With `C[C@@H](CCO)n1ncc2ncc(Nc3cc(OC(F)F)[nH]n3)nc21` (single isomer, unassigned) [Example 206, (R)-3-(6-((5-(difluoromethoxy)-1H-pyrazol-3-yl)amino)-1H-pyrazolo[3,4-b]pyrazin-1-yl)butan-1-ol or (S)-3-(6-((5-(difluoromethoxy)-1H-pyrazol-3-yl)amino)-1H-pyrazolo[3,4-b]pyrazin-1-yl)butan-1-ol], the IC50 is at least 500 nM at CDK1/Cyclin B1, GST-tag and above 100 nM at CDK2/Cyclin E.
On the same counts, the results for `FC(F)Oc1cc(Nc2cnc3cnn(Cc4cncs4)c3n2)n[nH]1` [Example 53, N-(5-(difluoromethoxy)-1H-pyrazol-3-yl)-1-(thiazol-5-ylmethyl)-1H-pyrazolo[3,4-b]pyrazin-6-amine] are at least 500 nM and at most 10 nM.
On the same counts, the results for `COc1cc(Nc2cnc3cnn(CC4C5COCC54)c3n2)n[nH]1` (stereo not shown) [Example 138, 1-((3-oxabicyclo[3.1.0]hexan-6-yl)methyl)-N-(5-methoxy-1H-pyrazol-3-yl)-1H-pyrazolo[3,4-b]pyrazin-6-amine] are at least 500 nM and 20 to 30 nM.
On the same counts, the results for `O[C@H]1CC[C@@H](n2ncc3ncc(Nc4cc(OC(F)F)[nH]n4)nc32)CC1` [Example 57, (1s,4s)-4-(6-((5-(difluoromethoxy)-1Hpyrazol-3-yl)amino)-1Hpyrazolo[3,4-b]pyrazin-1-yl)cyclohexan-1-ol] are at least 500 nM and 30 to 100 nM.
Take `CC(C)Cn1ncc2ncc(Nc3cc(OC(F)F)[nH]n3)nc21` [Example 100, N-(5-(difluoromethoxy)-1H-pyrazol-3-yl)-1-isobutyl-1H-pyrazolo[3,4-b]pyrazin-6-amine]: the IC50 on CDK1/Cyclin B1, GST-tag is at least 500 nM; at CDK2/Cyclin E, 10 to 20 nM.
On the same counts, the results for `COc1cc(Nc2cnc3cnn(C(C)c4cccnn4)c3n2)n[nH]1` (single isomer, unassigned) [Example 32, (S)—N-(5-methoxy-1H-pyrazol-3-yl)-1-(1-(pyridazin-3-yl)ethyl)-1H-pyrazolo[3,4-b]pyrazin-6-amine or (R)—N-(5-methoxy-1H-pyrazol-3-yl)-1-(1-(pyridazin-3-yl)ethyl)-1H-pyrazolo[3,4-b]pyrazin-6-amine] are at least 500 nM and 20 to 30 nM.
The matching figures for `FC(F)Oc1cc(Nc2cnc3cnn([C@H](c4ccccc4)C4COC4)c3n2)n[nH]1` (single isomer, unassigned) [Example 162, (R)-N-(5-(difluoromethoxy)-1H-pyrazol-3-yl)-1-(oxetan-3-yl(phenyl)methyl)-1H-pyrazolo[3,4-b]pyrazin-6-amine or (S)-N-(5-(difluoromethoxy)-1H-pyrazol-3-yl)-1-(oxetan-3-yl(phenyl)methyl)-1H-pyrazolo[3,4-b]pyrazin-6-amine]: at least 500 nM and above 100 nM.
On the same counts, the results for `FC(F)Oc1cc(Nc2cnc3cnn(CC4CCCC4)c3n2)n[nH]1` [Example 104, 1-(cyclopentylmethyl)-N-(5-(difluoromethoxy)-1H-pyrazol-3-yl)-1H-pyrazolo[3,4-b]pyrazin-6-amine] are 100 to 500 nM and at most 10 nM.
With `O[C@@H]1C[C@H]1Cn1ncc2ncc(Nc3cc(OC(F)F)[nH]n3)nc21` (single isomer, unassigned) [Example 180, (1S,2R)-2-((6-((5-(difluoromethoxy)-1H-pyrazol-3-yl)amino)-1H-pyrazolo[3,4-b]pyrazin-1-yl)methyl)cyclopropan-1-ol or (1R,2S)-2-((6-((5-(difluoromethoxy)-1H-pyrazol-3-yl)amino)-1H-pyrazolo[3,4-b]pyrazin-1-yl)methyl)cyclopropan-1-ol], the IC50 was at least 500 nM on CDK1/Cyclin B1, GST-tag and 20 to 30 nM on CDK2/Cyclin E.
In the case of `FC(F)Oc1cc(Nc2cnc3cnn(CC4(C(F)F)CCOCC4)c3n2)n[nH]1` [Example 122, N-(5-(difluoromethoxy)-1H-pyrazol-3-yl)-1-((4-(difluoromethyl)tetrahydro-2H-pyran-4-yl)methyl)-1H-pyrazolo[3,4-b]pyrazin-6-amine], the IC50 on CDK1/Cyclin B1, GST-tag is at least 500 nM; at CDK2/Cyclin E it was 20 to 30 nM.
The matching figures for `COc1cc(Nc2cnc3cnn(Cc4cccnc4F)c3n2)n[nH]1` [Example 137, 1-((2-fluoropyridin-3-yl)methyl)-N-(5-methoxy-1H-pyrazol-3-yl)-1H-pyrazolo[3,4-b]pyrazin-6-amine]: 100 to 500 nM and at most 10 nM.
On the same counts, the results for `OCC1CC(n2ncc3ncc(Nc4cc(OC(F)F)[nH]n4)nc32)C1` (stereo not shown) [Example 219, (3-(6-((5-(difluoromethoxy)-1H-pyrazol-3-yl)amino)-1H-pyrazolo [3,4-b]pyrazin-1-yl)cyclobutyl)methanol] are at least 500 nM and 20 to 30 nM.
The matching figures for `C[C@@H]([C@@H]1COCCO1)n1ncc2ncc(Nc3cc(OC(F)F)[nH]n3)nc21` (single isomer, unassigned) [Example 213]: at least 500 nM and 10 to 20 nM.
As to `CC[C@@H](c1ccccn1)n1ncc2ncc(Nc3cc(OC(F)F)[nH]n3)nc21` [Example 97, (S)-N-(5-(difluoromethoxy)-1H-pyrazol-3-yl)-1-(1-(pyridin-2-yl)propyl)-1H-pyrazolo[3,4-b]pyrazin-6-amine], the IC50 is at least 500 nM at CDK1/Cyclin B1, GST-tag and at most 10 nM on CDK2/Cyclin E.
On the same counts, the results for `C[C@H](CO)Cn1ncc2ncc(Nc3cc(OC(F)F)[nH]n3)nc21` [Example 199, (S)-3-(6-((5-(difluoromethoxy)-1H-pyrazol-3-yl)amino)-1H-pyrazolo[3,4-b]pyrazin-1-yl)-2-methylpropan-1-ol] are at least 500 nM and 30 to 100 nM.
`FC(F)Oc1cc(Nc2cnc3cnn(CC4CCOCC4)c3n2)n[nH]1` [Example 2, N-(5-(difluoromethoxy)-1H-pyrazol-3-yl)-1-((tetrahydro-2H-pyran-4-yl)methyl)-1H-pyrazolo[3,4-b]pyrazin-6-amine]: the IC50 at CDK1/Cyclin B1, GST-tag was 100 to 500 nM; at CDK2/Cyclin E, at most 10 nM.
Take `FC(F)Oc1cc(Nc2cnc3cnn(C[C@@H]4CC45CC5)c3n2)n[nH]1` (racemic) [Example 109, (R)-N-(5-(difluoromethoxy)-1H-pyrazol-3-yl)-1-(spiro[2.2]pentan-1-ylmethyl)-1H-pyrazolo[3,4-b]pyrazin-6-amine and (S)-N-(5-(difluoromethoxy)-1H-pyrazol-3-yl)-1-(spiro[2.2]pentan-1-ylmethyl)-1H-pyrazolo[3,4-b]pyrazin-6-amine]: the IC50 is 100 to 500 nM on CDK1/Cyclin B1, GST-tag and at most 10 nM on CDK2/Cyclin E.
The matching figures for `COc1cc(Nc2cnc3cnn([C@@H](C)C4COC4)c3n2)n[nH]1` [Example 71, (S)-N-(5-methoxy-1H-pyrazol-3-yl)-1-(1-(oxetan-3-yl)ethyl)-1H-pyrazolo[3,4-b]pyrazin-6-amine]: at least 500 nM and 10 to 20 nM.
On the same counts, the results for `O[C@H]1CC[C@@H](Cn2ncc3ncc(Nc4cc(OC(F)F)[nH]n4)nc32)CC1` (single isomer, unassigned) [Example 171, (1s,4s)-4-((6-((5-(difluoromethoxy)-1H-pyrazol-3-yl)amino)-1H-pyrazolo[3,4-b]pyrazin-1-yl)methyl)cyclohexan-1-ol or (1r,4r)-4-((6-((5-(difluoromethoxy)-1H-pyrazol-3-yl)amino)-1H-pyrazolo[3,4-b]pyrazin-1-yl)methyl)cyclohexan-1-ol] are at least 500 nM and 10 to 20 nM.
On the same counts, the results for `FC(F)Oc1cc(Nc2cnc3cnn([C@H](c4ccccn4)C(F)F)c3n2)n[nH]1` (single isomer, unassigned) [Example 149, (R)-1-(2,2-difluoro-1-(pyridin-2-yl)ethyl)-N-(5-(difluoromethoxy)-1H-pyrazol-3-yl)-1H-pyrazolo[3,4-b]pyrazin-6-amine or (S)-1-(2,2-difluoro-1-(pyridin-2-yl)ethyl)-N-(5-(difluoromethoxy)-1H-pyrazol-3-yl)-1H-pyrazolo[3,4-b]pyrazin-6-amine] are at least 500 nM and 30 to 100 nM.
